{
  "source": "patent US9023385B2",
  "about": "“Pharmaceutical use of 2-(4-morpholinoaniline)-6-cyclohexyl aminopurine and/or salt thereof for improving liver functioning” (Zhangzhou Pien Tze Huang Pharmaceutical Co., Ltd., priority 2011, dated 2015)",
  "key": {"[1]": {"test_system": "CCl4-induced liver fibrosis", "conditions": "Sprague-Dawley rats, CCl4 i.p. 6 weeks, then 50 or 100 μg/kg i.p. twice a week for two or four weeks", "experimental": "Twenty-four adult male Sprague-Dawley rats (500-600 g) were divided into 4 groups (n=6), the first group (control) was injected with carbon tetrachloride (CCl4) intraperitonally (i.p.) twice per week for 6 weeks to induce liver fibrosis. […] At the end of the experimentation, the different groups of rats were sacrificed and samples of the liver were collected and fixed in 4% buffered formalin for 24 hours. Paraffin embedded samples were sectioned for histology and immunohistochemistry. Liver samples were also collected and stored in −20° C. for Western Blot Analysis and RT-PCR quantification."}, "[2]": {"test_system": "activated rat hepatic stellate cells", "conditions": "5-10 μM", "protocol": "The isolation of the rat hepatic stellate cells: The liver of an adult male Sprague-Dawley rats (500-600 g) were excised out after perfusion with pronase and collagenase. The liver tissue was homogenized and centrifuged. […] The cells were cultured in DMEM (Dulbecco Meliorated Eagle Medium) with 20% FBS inside culture plates at a cell density of 1.5×10^5 cells/cm^2. After two days incubation, the culture medium was changed and the cell debris was washed and removed.\nThe culture condition of rat hepatic stellate cells: The rat hepatic stellate cells were cultured in DMEM containing 20% fetal bovine serum (FBS), penicillin (100 U/ml) and streptomycin (100 ug/ml) at 37° C. in 5% CO2. The culture medium was changed for every fourth day.\nThe inhibitory effect of 2-(4-morpholinoaniline)-6-cyclohexyl aminopurine on activated rat hepatic stellate cells: The cells were treated with 5-10 μM of 2-(4-morpholinoaniline)-6-cyclohexyl aminopurine for 24 hours. The treated cells were then collected for Microarrays analysis. The treated cells were also processed for immunofluorescence staining and RT-PCR quantification.\nThe western blot analysis: The cells are disrupted in 200 μl lysis buffer (50 mM NaCl, 20 mM Tris (trihydroxymethyl aminomethane) pH 7.6, 1% Nonidet P-40, 1× protease inhibitor compounds) for 1 hour at 4° C. After incubation, the lysate was centrifuged at 16,000×g for 10 mins. The supernatant was transferred to a new tube and a protein quantification kit was used to quantify the concentration of proteins in each samples. 25 μg of total protein from each sample was loaded into the 10% SDS PAGE gel for analysis. Collagen-I, MMP-2, MMP-3, TIMP-2 and TIMP-3 mouse monoclonal antibodies (Santa Cruz Lab) were used to analyze the samples. Beta-actin and beta-tubulin monoclonal antibodies (1:1000 diluted) were used as internal control and normalization."}},
  "note": "Entries after “also recorded” stand apart in the source; their conditions may differ.",
  "data": [
    {"molecule": "c1nc2c(NC3CCCCC3)nc(Nc3ccc(N4CCOCC4)cc3)nc2[nH]1", "note": "[2-(4-morpholinoaniline)-6-cyclohexyl aminopurine]", "values": [
      {"measurement": "Collagen synthesis in liver (histology, FIG. 5)", "setting": "[1]", "result": "effective in inhibiting collagen synthesis"},
      {"measurement": "Expression and synthesis of matrix metalloproteinases-2 (MMP-2) by activated hepatic stellate cells", "setting": "[2]; treatment for 3 days (FIG. 3B)", "result": "inhibited them from expressing and synthesizing and MMP-2; also recorded: suppressed activated hepatic stellate cells from expressing and synthesizing MMP-2 and MMP-3"},
      {"measurement": "Expression and synthesis of matrix metalloproteinases-3 (MMP-3) by activated hepatic stellate cells", "setting": "[2]; treatment for 3 days (FIG. 3D)", "result": "inhibited them from expressing and synthesizing MMP-3; also recorded: suppressed activated hepatic stellate cells from expressing and synthesizing MMP-2 and MMP-3"},
      {"measurement": "Expression and synthesis of tissue inhibitor of metalloproteinase-2 (TIMP-2) by activated hepatic stellate cells", "setting": "[2]; treatment for 3 days (FIG. 4B)", "result": "could inhibit activated hepatic stellate cells from expressing and synthesizing TIMP-2; also recorded: could inhibit the cells from producing TIMP-2 and TIMP-3"},
      {"measurement": "Expression and synthesis of TIMP-3 by activated hepatic stellate cells", "setting": "[2]; treatment for 3 days (FIG. 4D)", "result": "inhibited them from expressing and synthesizing TIMP-3; also recorded: could inhibit the cells from producing TIMP-2 and TIMP-3"}
    ]}
  ]
}
